Reference: a melting point compilation (Tetko et al.; mined from patent text by program, amines drawn as free bases though some values may be those of a salt)

melting point	Structure (SMILES)
113 to 115 °C	CC(C)(C)NC(=O)[C@@H]1CCCN1C(=O)[C@@H](O)[C@H](Cc1ccccc1)NC(=O)[C@H](CC(N)=O)NC(=O)OC(C)(C)C
56 to 58 °C	C=C1CCCc2ccc(OCc3ccc4ccccc4n3)cc21
158 to 159 °C	Cc1c(C)c(NC(=O)CC(C)(C)C)c2c(c1C)C(=O)C(C)(C)O2
183 to 184 °C	C[C@@H](c1ccc(-c2cc(=O)n(C)cc2F)cc1)N1CC[C@](CC(C)(C)O)(c2ccccc2)OC1=O
153 to 155 °C	CCOC(=O)c1ccc(OCCC2CCN(c3cc(Cl)nnc3Cl)CC2)cc1
114 to 115 °C	O=Cc1cnc(-c2ccc(OC(F)(F)F)cc2)nc1
82 to 84 °C	COC(=O)c1ccccc1Sc1ccccc1OC
131 to 133 °C	Cc1noc(NS(=O)(=O)c2c(C)sc3ccccc23)c1Br
155 °C	CC(C)(C)OC(=O)N1CCC(c2cn(-c3ccc(F)cc3)c3ccc(C#N)cc23)CC1
191 °C	Cc1ccc(S(=O)(=O)c2c(O)c3ccccc3n(C)c2=O)cc1
155 to 157 °C	COCCOC(=O)c1ccc(C(C(N)=O)C(C)c2ccccc2N2CCCCC2)cc1 (stereo not drawn)
163 to 164 °C	CCCCc1nc2c(N)nc3cccnc3c2n1CCNC(=O)CC(C)CCC=C(C)C (stereo not drawn)
61 °C	CCn1ccc(-c2cccc(-c3ccnc4c(C(=O)c5cccs5)cnn34)c2)n1
207 to 209 °C	CC(=O)c1ccc(NS(=O)(=O)c2sc3ccc(Cl)cc3c2C)c(S(C)(=O)=O)c1
310 °C	Cc1ccc(Nc2cc(C(=O)O)c(Nc3ccc(C)cc3)cc2C(=O)O)cc1
199 °C	OC(Cn1cncn1)c1ccc(-c2ccc(Cl)cc2)cc1 (stereo not drawn)
130 to 131 °C	CCOc1ccc(S(=O)(=O)N(CC(=O)NN=C2C(=O)Nc3ccccc32)c2ccc(C)cc2)cc1
192 to 193 °C	COC(=O)Cc1ccc2nc(C(F)(F)F)cc(O)c2c1
163 to 164 °C	COc1ccc(C2(CCCCl)S(=O)CCCS2=O)cc1OC (stereo not drawn)
154 to 157 °C	COc1ccc(Sc2c([N+](=O)[O-])ccc(Cl)c2C(=O)O)cc1
220 to 225 °C	O=C(O)c1cn(CCc2ccc(Cl)cc2)c2cc(C3CC3)nn2c1=O
86 to 87 °C	O=[N+]([O-])c1cc(O)ccc1F

melting point	Structure (SMILES)
116 °C	CC#CCn1c(=N)sc2cc(OC(F)(F)F)ccc21
114 to 115 °C	CCCCC1(CCCC)Cc2c(O)cccc2C1=O
125 to 126 °C	CCOc1cc2c(c3c1OC(C)(C)C3)C(c1ccccc1)=[N+]([O-])C(C)(C)C2
142 to 144 °C	N#CC(C(=O)c1ccc(Cl)cc1)=C1CCCN1Cc1ccc(Cl)nc1
151 to 154 °C	c1ccc2cc(CC[C@H]3CNCCN3)ccc2c1
235 to 236 °C	COc1ccc(Cc2ncc(C(=O)O)c3cc(OC)c(OC)cc23)cc1OC
188 to 189 °C	CCOC(=O)c1cn(-c2cc(NC(=O)OC(C)(C)C)c(F)cc2F)c2c(C)c(F)c(F)c([N+](=O)[O-])c2c1=O
181 to 184 °C	CC(C)(C)c1nc(C(=O)c2nccs2)nc(C(C)(C)C)c1O
235 to 237 °C	ON=C1c2ccccc2-c2c1c(N1CCN(c3ccccn3)CC1)nc1ccc(Br)cc21
108 to 109 °C	COc1cc(COc2ncccc2CC#N)ccc1OCc1nc(-c2ccccc2)oc1C
120 °C	Cc1cc(NS(=O)(=O)c2cc(C3(O)CCC(=O)N3C)ccc2Cl)cc(C(C)(C)C)c1O (stereo not drawn)
150 to 151 °C	CN1CCC(=C2c3ccc(Cl)cc3CC(=O)c3sccc32)CC1
72 °C	CCCCCCCCCCCCOS(=O)(=O)O
206 to 208 °C	CN(C)Cc1nnc(CN2C(=O)c3ccccc3C2=O)n1-c1ccc(Cl)cc1C(=O)c1ccccc1
192 °C	CCN(C)C(=O)C(Cc1ccc(C#N)cc1)NC(=O)C(Cc1ccc(OC)cc1)S(=O)(=O)Nc1ccc(Cl)c(Cl)c1 (stereo not drawn)
176 to 177 °C	CC(C)OC(=O)C1=C(COCCN2C(=O)c3ccccc3C2=O)Nc2c(C#N)cnn2C1c1cccc(F)c1F (stereo not drawn)
195 to 197 °C	Cn1cc(Br)c(=O)c(-c2ccccc2)c1
38 to 40 °C	CC(=O)N(C(C)C(=O)NC(C)C(=O)OC(C)(C)C)C(CO)c1ccccc1 (stereo not drawn)
204 °C	NS(=O)(=O)c1ccc(N2CN(c3ccccc3)CC2=O)c(Cl)c1
233 °C	COc1cc(C)ccc1S(=O)(=O)NC(=O)C(c1cc(OC)c2c(c1)OCO2)c1cn(C)c2cc(C=O)ccc12 (stereo not drawn)
291 to 292 °C	CN1CCN(Cc2cc(NC(=O)Nc3ccc(Oc4cc(Cl)ncn4)cc3)cc(C(F)(F)F)c2)CC1
60 to 90 °C	CCCCNS(=O)(=O)CC(O)C(O)C(CC1CCCCC1)NC(=O)C(CC)Cc1c[nH]cn1 (stereo not drawn)

melting point	Structure (SMILES)
155 °C	CC(C)C(=O)Oc1ccc2c(c1Cl)Sc1ccccc1N2
116 to 118 °C	CNc1nc(-c2cccc(OCc3ccccc3)c2)c2cc(OC)c(OC)cc2n1
256 to 257 °C	Oc1ccc2c(-c3cc(F)ccc3F)noc2c1Cl
79.5 °C	Cc1cccc(-c2cn(C)cc(-c3ccccc3)c2=O)c1
108 to 109 °C	COC(=O)c1c(C(F)F)nc(C(F)(F)F)c(C(=O)SC)c1NC1CC1
163 °C	COc1ccc2c(=O)c(OS(C)(=O)=O)cn(C)c2c1
74 to 76 °C	CCCN(C1=C(O)C[C@@](CCc2cccc(O)c2)(C2CCCC2)OC1=O)c1ccccc1
163 to 165 °C	Cc1oc(-c2ccccc2)nc1CCOc1ccc(CC(F)(C(=O)O)c2ccccc2)cc1 (stereo not drawn)
276 °C	O=C(Nc1ccccc1)Nc1ccc2ccc(Cl)nc2n1
98 to 100 °C	CC(=O)NC[C@H]1CN(c2ccc(N3CCC(O)(CO)CC3)c(F)c2)C(=O)O1
200 to 205 °C	CC(=O)NC[C@H]1CN(c2cc(F)c(N3CCC(n4nnc(N5CCN(C(C)=O)CC5)n4)CC3)c(F)c2)C(=O)O1
156 to 159 °C	N#Cc1cc(-c2ccoc2)c2ccc(COc3cc(F)cc(-c4ccoc4)c3)cc2n1
149 to 153 °C	Cn1c(COc2cccc(N)c2)nc2ccccc21
36 to 38 °C	CCCCCCCCCCCCCCOc1ccc(CC(=O)OC)cc1
142 to 146 °C	CS(=O)Cc1cc(=O)c2ccccc2o1 (stereo not drawn)
119 to 120 °C	CCOC(=O)CN(CCc1ccccc1)C(=O)[C@@H]1C[C@@H](SC(C)=O)CN1S(=O)(=O)c1ccc2ccccc2c1
87 to 88 °C	Clc1nccnc1Oc1ccc2c(c1)OCO2
118 to 119 °C	COc1cc(NC(C)=O)ccc1OCCN1CCN(c2ccccc2F)CC1
109 to 110 °C	CCOC(=O)CC(NC(=O)C1=C(C(=O)Nc2ccc(Cl)cc2F)CCCC1)C(=O)OCC (stereo not drawn)
135 to 136 °C	CCOC(=O)[C@@H]1C[C@H]([N+](=O)[O-])[C@@H](C(=O)O)[C@H](OC(CC)CC)[C@@H]1Sc1ccc(C)cc1

Structure (SMILES)	melting point
CN1C2CCC1CN(c1ccc(-c3cccs3)nn1)C2	156 °C
Cc1c(Cl)c([N+](=O)[O-])cc([N+](=O)[O-])c1Cl	131 to 132 °C
C#CCNC(=O)c1ncn2c1CN(C)C(=O)c1cc(F)ccc1-2	205 to 206 °C
CN1CCC(c2ccccc2)(N2CCCC2)C(O)C1 (stereo not drawn)	149 to 151 °C
